Measured values as given in patent US11230538B2, “Herbicides” (SYNGENTA PARTICIPATIONS AG, priority 2016, dated 2022).

Experiments:
Format in all cases: in vivo
[1] = test system: Alopecurus myosuroides (ALOMY); test: B1 Pre-emergence herbicidal activity; design: key: 5=total damage to plant; 0=no damage to plant; details: pre-emergence application, rate 1000 g/ha, evaluated after 13 days
Procedure: (§1) Seeds of a variety of test species were sown in standard soil in pots: Triticum aestivium (TRZAW), Avena fatua (AVEFA), Alopecurus myosuroides (ALOMY), Echinochloa crus-galli (ECHCG), Lolium perenne (LOLPE), Zea Mays (ZEAMX), Abutilon theophrasti (ABUTH), Amaranthus retroflexus (AMARE) and Setaria fabenr (SETFA). After cultivation for one day (pre-emergence) under controlled conditions in a glasshouse (at 24/16° C., day/night; 14 hours light; 65% humidity), the plants were sprayed with an aqueous spray solution derived from the formulation of the technical active ingredient in acetone I water (50:50) solution containing 0.5% Tween 20 (polyoxyethelyene sorbitan monolaurate, CAS RN 9005-64-5). The test plants were then grown in a glasshouse under controlled conditions (at 24/16° C., day/night; 14 hours light; 65% humidity) and watered twice daily. After 13 days, the test was evaluated (5=total damage to plant; 0=no damage to plant).

Avena fatua (AVEFA) = test: B1 Pre-emergence herbicidal activity; design: key: 5=total damage to plant; 0=no damage to plant; details: pre-emergence application, rate 1000 g/ha, evaluated after 13 days
Procedure: as §1

[2] = test system: Triticum aestivium (TRZAW); test: B1 Pre-emergence herbicidal activity; design: key: 5=total damage to plant; 0=no damage to plant; details: pre-emergence application, rate 1000 g/ha, evaluated after 13 days
Procedure: as §1

[3] = test system: Echinochloa crus-galli (ECHCG); test: B1 Pre-emergence herbicidal activity; design: key to Pre-emergence herbicidal activity, ECHCG (damage score 0-5): 5=total damage to plant; 0=no damage to plant; details: pre-emergence application, rate 1000 g/ha, evaluated after 13 days
Procedure: as §1

Lolium perenne (LOLPE) = test: B1 Pre-emergence herbicidal activity; design: key to Pre-emergence herbicidal activity, LOLPE (damage score 0-5): 5=total damage to plant; 0=no damage to plant; details: pre-emergence application, rate 1000 g/ha, evaluated after 13 days
Procedure: as §1

Setaria fabenr (SETFA) = test: B1 Pre-emergence herbicidal activity; design: key to Pre-emergence herbicidal activity, SETFA (damage score 0-5): 5=total damage to plant; 0=no damage to plant; details: pre-emergence application, rate 1000 g/ha, evaluated after 13 days
Procedure: as §1

[4] = test system: Echinochloa crus-galli (ECHCG); test: B2 Post-emergence herbicidal activity; details: post-emergence application, rate 1000 g/ha, evaluated after 13 days
Procedure: (§2) Seeds of a variety of test species were sown in standard soil in pots: Triticum aestivium (TRZAW), Avena fatua (AVEFA), Alopecurus myosuroides (ALOMY), Echinochloa crus-galli (ECHCG), Lolium perenne (LOLPE), Zea Mays (ZEAMX), Abutilon theophrasti (ABUTH), Amaranthus retroflexus (AMARE) and Setaria fabenri (SETFA). After 8 days cultivation (post-emergence) under controlled conditions in a glasshouse (at 24/16° C., day/night; 14 hours light; 65% humidity), the plants were sprayed with an aqueous spray solution derived from the formulation of the technical active ingredient in acetone I water (50:50) solution containing 0.5% Tween 20 (polyoxyethelyene sorbitan monolaurate, CAS RN 9005-64-5). The test plants were then grown in a glasshouse under controlled conditions (at 24/16° C., day/night; 14 hours light; 65% humidity) and watered twice daily. After 13 days, the test was evaluated (5=total damage to plant; 0=no damage to plant).

[5] = test system: Alopecurus myosuroides (ALOMY); test: B2 Post-emergence herbicidal activity; design: key: 5=total damage to plant; 0=no damage to plant; details: post-emergence application, rate 1000 g/ha, evaluated after 13 days
Procedure: as §2

Setaria fabenri (SETFA) = test: B2 Post-emergence herbicidal activity; design: key: 5=total damage to plant; 0=no damage to plant; details: post-emergence application, rate 1000 g/ha, evaluated after 13 days
Procedure: as §2

[6] = test system: Triticum aestivium (TRZAW); test: B2 Post-emergence herbicidal activity; design: key: 5=total damage to plant; 0=no damage to plant; details: post-emergence application, rate 1000 g/ha, evaluated after 13 days
Procedure: as §2

SMILES | Pre-emergence herbicidal activity, ALOMY (damage score 0-5) [1] | Pre-emergence herbicidal activity, AVEFA (damage score 0-5) (Avena fatua (AVEFA)) | Pre-emergence herbicidal activity, TRAZW (damage score 0-5) [2] | Pre-emergence herbicidal activity, ECHCG (damage score 0-5) [3] | Pre-emergence herbicidal activity, LOLPE (damage score 0-5) (Lolium perenne (LOLPE)) | Pre-emergence herbicidal activity, SETFA (damage score 0-5) (Setaria fabenr (SETFA)) | Post-emergence herbicidal activity, ECHCG (damage score 0-5) [4] | Post-emergence herbicidal activity, ALOMY (damage score 0-5) [5] | Post-emergence herbicidal activity, SETFA (damage score 0-5) (Setaria fabenri (SETFA)) | Post-emergence herbicidal activity, TRAZW (damage score 0-5) [6]
COCC(=O)N(CC(=O)N(C)C)c1ccc(-c2cncc(F)c2)nc1C(F)(F)F [Compound C84] | 0 | 1 | 0 | 2 | 1 | 5 | 3 | 1 | 4 | 0
COCC(=O)N(COCC(C)(C)C)c1ccc(-c2cncc(F)c2)nc1C(F)(F)F [Compound C81] | 0 | 1 | 0 | 3 | 2 | 5 | 4 | 0 | 5 | 0
CCN(CC)CCCN(C(=O)c1ccccc1)c1ccc(-c2cncc(F)c2)nc1C(F)(F)F [Compound C74] | 1 | 0 | 0 | 1 | 1 | 3 | 2 | 0 | 3 | 0
COCC(=O)N(Cc1ccc(Cl)cc1)c1ccc(-c2cncc(F)c2)nc1C(F)(F)F [Compound C82] | 0 | 0 | 0 | 1 | 0 | 1 | 1 | 0 | 2 | 0
CC(C)CN(C(=O)C(C)C)c1ccc(-c2cncc(F)c2)nc1C(F)(F)F [Compound C86] | 0 | 0 | 0 | 0 | 0 | 1 | 1 | 0 | 1 | 0
CC(C)C(=O)N(CC(=O)N(C)C)c1ccc(-c2cncc(F)c2)nc1C(F)(F)F [Compound C107] | 0 | 1 | 0 | 3 | 0 | 5 | 4 | 0 | 5 | 0
CCC(=O)N(COCC(F)(F)F)c1ccc(-c2cncc(F)c2)nc1C(F)(F)F [Compound C72] | 0 | 0 | 0 | 1 | 0 | 4 | 2 | 0 | 3 | 0
